Source: patent US20180207105A1, “METHOD FOR MANUFACTURING A THERAPEUTIC AGENT FOR USE IN THE TREATMENT OF INFECTIONS” (AGA NANOTECH LTD, priority 2014, published 2018)

Experiment: pH of solutions of the active ingredients alone dissolved in ultrapure water
Format: physicochemical
[1] = 17.5 mg/ml (1.75 wt %) in ultrapure water
[2] = 35 mg/ml (3.5 wt %) in ultrapure water
[3] = 70 mg/ml (7 wt %) in ultrapure water
[4] = 140 mg/ml (14 wt %) in ultrapure water
[5] = 280 mg/ml (28 wt %) in ultrapure water

Row | SMILES | pH of solution [1] | pH of solution [2] | pH of solution [3] | pH of solution [4] | pH of solution [5]
1 | O=C([O-])[O-].O=C([O-])[O-].OO.OO.OO.[Na+].[Na+].[Na+].[Na+] [Sodium Percarbonate, Sodium percarbonate] | 10.83 | 10.89 | 10.87 | 10.83 | 10.74
2 | NC(N)=O.OO [Urea Hydrogen Peroxide, urea hydrogen peroxide] | 7.90 | 6.92 | 6.9 | 6.38 | 4.97
